For one series, the target named is T1, HsVR1 (Homo sapiens, UniProt Q8NER1).
T1 construct: expressed in transfected cells; host or cells: Xenopus oocytes injected with HsVR1 RNA
Put plainly: Two-electrode voltage clamp recording of capsaicin induced VR1 current in Xenopus oocytes. The format is cell-based. The settings on record: 250 nM capsaicin induced current; Xenopus oocytes injected with HsVR1 RNA; read-out: EPHYS IC50. The procedure:
Xenopus ovaries obtained from NASCO were isolated by enzymatic dissociation using collagenase (Worthington, 2 mg/ml). Oocytes were then individually injected with HsVR1 RNA (0.5 μg/μl). Injected oocytes are stored in standard oocyte incubation solution, ND96, containing 96 mM NaCl, 2 mM KCl, 1 mM MgCl2, 0.3 mM CaCl2 and 50 µg/ml Gentamicin at 16° C. Capsaicin induced VR1 current is observed in oocytes 4-5 days after injection. Eight oocytes are placed in the recording chambers. Each oocyte is impaled by 2 glass electrodes having resistances of 0.5 to 1 MOhm when filled with a 3 M KCl solution. Electrode advancement and oocyte impalement are under software control (OpusXpress 1.1, Axon Instruments). VR1 expression in the oocytes is verified using 250 nM capsaicin. Test solution delivery to the oocytes during the experiment is also under software control. The solutions are prepared in 96 well plates and robotically pipetted into the oocyte recording chambers by an 8 channel pipetter. Oocytes are exposed to several 250 μl applications of 250 nM capsaicin until a stable current amplitude is obtained with each application. A set of 96 well plates containing the test solutions is prepared so that the sequence of solution application to the oocyte is as follows: 250 μls of 250 nM capsaicin is followed by a several minute wash with standard oocyte saline. 1 ml of the test compound is then added at a particular test concentration, followed immediately by 250 μl of the compound at the same concentration plus 250 nM capsaicin. The capsaicin induced VR1 current is recorded in the presence and absence of test compound for each concentration. The standard test concentrations range from 0.3 to 2000 nM. Quantitative measurement of VR1 current block was carried out by calculating the area under the curve described by the inward current. The resulting numbers for capsaicin induced currents in the presence of increasing compound concentration are normalized to the maximum current obtained. These points are then plotted on a logarithmic scale and fitted by a Hill function. The IC50 values for each compound tested were then calculated from the resulting Hill fit. All compounds that inhibited capsaicin induced current greater than 50% were considered positives.
On the technique in general: In two-electrode clamp one electrode senses voltage and the other passes current.

Series [1] can be described thus: Pharmacokinetic profile after intravenous and oral administration. In kind it is in vivo. Particulars: rat, IV 1 mg/kg, oral 5 mg/kg; for Cmax / Tmax / Vd / bioavailability: male, Sprague-Dawley, plasma. The procedure: The pharmacokinetic profile of Compound 1 was evaluated following intravenous and oral administration in rats. Sprague-Dawley male rats obtained from Charles River, San Diego, Calif. were acclimated for 24 hours.
Compounds of this invention were formulated at a concentration of 0.5 mg/mL for IV administration at a 1 mg/kg dose and 1 mg/mL for oral administration at a 5 mg/kg dose. All animals were weighed before dosing. The body weight was used to calculate the actual dose for each animal. The intravenous dose was administered through the jugular vein catheter in less than 1 minute. The oral dose volume was 1.5 mL for all PO rats administered through oral lavage.
For IV dosing, blood samples were collected using a pre-heparinized syringe via the carotid artery catheter before dosing and at t=2, 5, 15, 30, 60, 120, 180, 360, and 480 minutes post dosing. For PO dosing, blood samples were collected using a pre-heparinized syringe via the carotid artery catheter before dosing and at t=5, 15, 30, 60, 120, 180, 360, and 480 minutes post dosing. 250 uL of blood was obtained at each time point from each animal. Equal volumes of 0.9% normal saline were replaced to prevent dehydration. The whole blood samples were maintained on ice until centrifugation. Blood samples were centrifuged at 14,000 rpm for 10 minutes at 4° C., and the upper plasma layer was transferred into a clean vial and store at −80° C.

For the next series, the target named is hVR1 (Homo sapiens, UniProt Q8NER1). Put plainly: Calcium imaging assay (Fura2) of VR1 antagonists, proton stimulation. The format is cell-based. Particulars: HEK 293 cells expressing hVR1; for % Inhibition @ 1 μM: calcium ion influx induced by proton stimulation (pH 5.7); for pIC50: calcium ion influx induced by proton stimulation. The procedure, abridged:
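HEK293 cells expressing capsaicin-insensitive hVR1 were loaded with Fura2 (5 μg/mL, 37 °C, 40 min). Compound was added, then compound plus acid agonist (10 mM citric acid, pH 5.7), with the 340/380 nm ratio read every 4 s for 3 min. Peak-minus-baseline response gave % inhibition and an ID50 from dose-response curves.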

pIC50: −log10 of the molar value. Some results are limits rather than exact numbers.

T1 sequence (Q8NER1 whole entry): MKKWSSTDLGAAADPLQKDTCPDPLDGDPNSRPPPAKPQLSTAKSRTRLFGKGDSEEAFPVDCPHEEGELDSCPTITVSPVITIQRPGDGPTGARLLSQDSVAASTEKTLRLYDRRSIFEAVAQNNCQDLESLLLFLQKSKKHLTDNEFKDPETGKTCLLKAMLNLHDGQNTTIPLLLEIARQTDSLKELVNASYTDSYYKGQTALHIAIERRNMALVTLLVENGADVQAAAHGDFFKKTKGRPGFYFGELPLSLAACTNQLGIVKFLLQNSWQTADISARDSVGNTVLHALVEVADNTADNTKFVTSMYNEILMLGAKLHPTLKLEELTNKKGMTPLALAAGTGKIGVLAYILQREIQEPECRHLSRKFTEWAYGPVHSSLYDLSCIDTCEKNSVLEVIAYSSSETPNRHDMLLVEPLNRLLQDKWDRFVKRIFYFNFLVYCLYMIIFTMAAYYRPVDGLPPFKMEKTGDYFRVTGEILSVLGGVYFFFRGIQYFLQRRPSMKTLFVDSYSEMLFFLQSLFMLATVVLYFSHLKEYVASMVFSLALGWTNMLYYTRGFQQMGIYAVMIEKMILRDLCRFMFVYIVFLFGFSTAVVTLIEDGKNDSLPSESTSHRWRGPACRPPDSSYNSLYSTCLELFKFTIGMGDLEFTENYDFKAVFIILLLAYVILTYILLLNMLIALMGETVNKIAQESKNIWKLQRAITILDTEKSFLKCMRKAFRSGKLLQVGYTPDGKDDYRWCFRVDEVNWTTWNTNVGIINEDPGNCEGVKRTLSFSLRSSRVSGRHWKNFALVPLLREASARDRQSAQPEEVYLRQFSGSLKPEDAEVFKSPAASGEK
hVR1, sequence (Q8NER1 whole entry): as above

With `FC(F)(F)c1ccc(Nc2ncnc3c2CCN(c2ncccc2Cl)C3)cc1` [Example 1, 7-(3-Chloropyridin-2-yl)-N-(4-(trifluoromethyl)phenyl)-5,6,7,8-tetrahydropyrido[3,4-d]pyrimidin-4-amine], at HsVR1, the negative-log IC50 (pIC50) is 6.30 to 7.00. In series [1], the Cmax worked out at 1380 ng/mL, the Tmax was 1.01 h, the Vd came to 1.28 L/kg and the bioavailability worked out at 37%. In series [1], the “Cls (L/hrKg)” value is on record as 0.34 L/hrKg and the “T/2” value stood at 2.52 h. For the same compound, on hVR1, the “% Inhibition @ 1 μM” value is “++++ (compound exhibited 76% or greater inhibition of calcium ion influx induced by proton stimulation)” and the negative logarithm of the IC50 (pIC50) is 6.30 to 7.00.

On to `CS(=O)(=O)c1cccnc1N1CCc2c(ncnc2Nc2ccc(C(F)(F)F)cc2)C1` [Example 9, [7-(3-Methanesulfonyl-pyridin-2-yl)-5,6,7,8-tetrahydro-pyrido[3,4-d]pyrimidin-4-yl]-(4-trifluoromethyl-phenyl)-amine], for which the negative logarithm of the IC50 (pIC50) at HsVR1 was 6.30 to 7.00. In series [1], the Cmax was 156 ng/mL, the Tmax worked out at 1.67 h, the Vd amounted to 13 L/kg and the bioavailability is 47.9%. Further, in series [1], the “Cls (L/hrKg)” value stood at 1.99 L/hrKg and the “T/2” value stood at 4.37 h. For the same compound, on hVR1, the “% Inhibition @ 1 μM” value is “++++ (compound exhibited 76% or greater inhibition of calcium ion influx induced by proton stimulation)” and the pIC50 is 6.30 to 7.00.

As to `FC(F)(F)c1ccc(Nc2nccc3c2CCN(c2ncccc2Cl)C3)cc1` [Example 26, 6-(3-Chloropyridin-2-yl)-N-(4-(trifluoromethyl)phenyl)-5,6,7,8-tetrahydro-2,6-naphthyridin-1-amine], the pIC50 on HsVR1 was under 6.00. For the same compound, on hVR1, the “% Inhibition @ 1 μM” value was “+ (compound exhibited 0-25% inhibition of calcium ion influx induced by proton stimulation)”.

Take `CSc1nc2c(c(Nc3ccc(C(C)(C)C)cc3)n1)CCN(c1ncccc1Cl)C2` [Example 28, N-(4-tert-Butylphenyl)-7-(3-chloropyridin-2-yl)-5,6,7,8-tetrahydro-2-(methylthio)pyrido[3,4-d]pyrimidin-4-amine]: the pIC50 at HsVR1 and on hVR1 was over 7.00 throughout. Further, the “% Inhibition @ 1 μM” value on hVR1 is reported as “++++ (compound exhibited 76% or greater inhibition of calcium ion influx induced by proton stimulation)”.

For the compound `COc1nc2c(c(Nc3ccc(C(C)(C)C)cc3)n1)CCN(c1ncccc1Cl)C2` [Example 29, N-(4-tert-Butylphenyl)-7-(3-chloropyridin-2-yl)-5,6,7,8-tetrahydro-2-methoxypyrido[3,4-d]pyrimidin-4-amine], at HsVR1, the negative-log IC50 (pIC50) is over 7.00. In addition, on hVR1, the “% Inhibition @ 1 μM” value is on record as “++++ (compound exhibited 76% or greater inhibition of calcium ion influx induced by proton stimulation)” and the pIC50 was over 7.00.

Take `FC(F)(F)c1ccc(Nc2nc(NCCN3CCOCC3)nc3c2CCN(c2ncccc2Cl)C3)cc1` [Example 33, 7-(3-Chloropyridin-2-yl)-N^4-(4-(trifluoromethyl)phenyl)-5,6,7,8-tetrahydro-N^2-(2-morpholinoethyl)pyrido[3,4-d]pyrimidine-2,4-diamine]: on HsVR1, the pIC50 was 6.00 to 6.30. Besides, the “% Inhibition @ 1 μM” value on hVR1 was “+ (compound exhibited 0-25% inhibition of calcium ion influx induced by proton stimulation)”.

Consider `CN(C)c1nc2c(c(Nc3ccc(C(F)(F)F)cc3)n1)CCN(c1ncccc1Cl)C2` [Example 34, 7-(3-Chloropyridin-2-yl)-N^4-(4-(trifluoromethyl)phenyl)-5,6,7,8-tetrahydro-N^2N^2-dimethylpyrido[3,4-d]pyrimidine-2,4-diamine], for which the negative-log IC50 (pIC50) at HsVR1 is 6.00 to 6.30; on hVR1, 6.30 to 7.00. The “% Inhibition @ 1 μM” value on hVR1 is given as “+ (compound exhibited 0-25% inhibition of calcium ion influx induced by proton stimulation)”.

For `COCc1nc2c(c(Nc3ccc(C(F)(F)F)cc3)n1)CCN(c1ncccc1Cl)C2` [Example 35, 7-(3-Chloropyridin-2-yl)-N-(4-(trifluoromethyl)phenyl)-5,6,7,8-tetrahydro-2-(methoxymethyl)pyrido[3,4-d]pyrimidin-4-amine], the pIC50 at HsVR1 was 6.30 to 7.00. Besides, at hVR1, the “% Inhibition @ 1 μM” value was “++++ (compound exhibited 76% or greater inhibition of calcium ion influx induced by proton stimulation)”.

Consider `N#Cc1nc2c(c(Nc3ccc(C(F)(F)F)cc3)n1)CCN(c1ncccc1Cl)C2` [Example 37, 4-(4-(Trifluoromethyl)phenylamino)-7-(3-chloropyridin-2-yl)-5,6,7,8-tetrahydropyrido[3,4-d]pyrimidine-2-carbonitrile], for which the pIC50 at HsVR1 is 6.30 to 7.00. For the same compound, in series [1], the Cmax came to 49.4 ng/mL, the Tmax came to 3.33 h, the Vd was 12.4 L/kg and the bioavailability is 17.9%. Also, in series [1], the “Cls (L/hrKg)” value is reported as 4.02 L/hrKg and the “T/2” value amounted to 2.15 h. Further, the “% Inhibition @ 1 μM” value on hVR1 was “++++ (compound exhibited 76% or greater inhibition of calcium ion influx induced by proton stimulation)”.

For `Clc1cccnc1N1CCc2c(ncnc2NCCc2ccccc2)C1` [Example 39, 7-(3-Chloropyridin-2-yl)-5,6,7,8-tetrahydro-N-phenethylpyrido[3,4-d]pyrimidin-4-amine], the pIC50 was under 6.00 on HsVR1 and 6.30 to 7.00 on hVR1. Also, at hVR1, the “% Inhibition @ 1 μM” value is recorded as “++++ (compound exhibited 76% or greater inhibition of calcium ion influx induced by proton stimulation)”.

Turning to `Cc1ccccc1N1CCc2c(ncnc2Nc2ccc(C(F)(F)F)cc2)C1` [Example 45, 7-(o-Tolyl)-N-(4-(trifluoromethyl)phenyl)-5,6,7,8-tetrahydropyrido[3,4-d]pyrimidin-4-amine], at HsVR1, the pIC50 was over 7.00. Also, on hVR1, the “% Inhibition @ 1 μM” value is “++++ (compound exhibited 76% or greater inhibition of calcium ion influx induced by proton stimulation)” and the pIC50 is over 7.00.

For `Cc1cccc(N2CCc3c(ncnc3Nc3ccc(C(F)(F)F)cc3)C2)c1` [Example 46, 7-(m-Tolyl)-N-(4-(trifluoromethyl)phenyl)-5,6,7,8-tetrahydropyrido[3,4-d]pyrimidin-4-amine], the pIC50 on HsVR1 was 6.00 to 6.30. For the same compound, on hVR1, the “% Inhibition @ 1 μM” value is “+ (compound exhibited 0-25% inhibition of calcium ion influx induced by proton stimulation)” and the pIC50 was under 6.00.

As to `CCOc1nc2c(c(Nc3ccc(C(F)(F)F)cc3)n1)CCN(c1ncccc1Cl)C2` [Example 48, 7-(3-Chloropyridin-2-yl)-2-ethoxy-N-(4-(trifluoromethyl)phenyl)-5,6,7,8-tetrahydropyrido[3,4-d]pyrimidin-4-amine], the pIC50 at HsVR1 is over 7.00. Further, at hVR1, the “% Inhibition @ 1 μM” value is “++++ (compound exhibited 76% or greater inhibition of calcium ion influx induced by proton stimulation)” and the pIC50 is 6.30 to 7.00.

Take `CCOc1nc2c(c(Nc3ccc(C(F)(F)F)cc3)n1)CCN(c1ncccc1S(C)(=O)=O)C2` [Example 64, 2-Ethoxy-N-(4-(trifluoromethyl)phenyl)-5,6,7,8-tetrahydro-7-(3-(methylsulfonyl)pyridin-2-yl)pyrido[3,4-d]pyrimidin-4-amine]: the pIC50 on HsVR1 was 6.30 to 7.00; at hVR1, 6.00 to 6.30. Further, the “% Inhibition @ 1 μM” value on hVR1 is recorded as “+++ (compound exhibited 51-75% inhibition of calcium ion influx induced by proton stimulation)”.

A word on the pIC50: it is −log10 of the IC50, conventionally taken in molar units. A word on the Cmax: it is the highest concentration seen after dosing. In general, Tmax refers to the time from dosing to the highest level. For orientation: bioavailability means dose-corrected exposure relative to a reference, in per cent. Read a low bioavailability as little systemic uptake.

Values taken from patent US7312330B2, “Bicycloheteroarylamine compounds as ion channel ligands and uses thereof” (Renovis, Inc., priority 2003, dated 2007).
